The record followed here is patent US20090062122A1, “Cotton Growth Regulator” (FMC Corporation, priority 2006, published 2009).

Molecules are shown by their SMILES.

In the assay the test system is cotton, variety D&PL 555. In words: % terminal control of cotton plants, field trial. The class given is in vivo. How it is done: The trial was performed on cotton, variety D&PL 555. The formulated test compounds were diluted to the appropriate concentrations with water to which a crop oil concentrate (1% to 2% v/v) or a non-ionic surfactant (0.25% v/v) was added. The application of the test composition as a cotton plant growth regulator was performed using pressurized, over-the-top spray equipment consisting of a research scale boom sprayer. Deposit of the test composition was primarily to the top of the cotton plants, minimizing spray deposition to lower branches, leaves and fruit. The finished spray volume was 10 gallons per acre, with sprayer nozzle design, orientation and nozzle pressures chosen to prevent spray drift. Applications were made at first sign of cotton boll opening and at 15%, 20% and 40% open bolls.
The experimental design used randomized plots with 1 to 4 treatment rates of test composition and from 1 to 10 replications depending on the test (sees tables below). The size of each experimental plot was about 15 m^2. Testing was performed in Texas, North Carolina, Mississippi and Georgia.
Percent desiccation, percent defoliation, percent terminal control and percent open bolls were evaluated at 7 and 14 days after application (DAA) of the test composition. Inspection of cotton plants for insect control of armyworm larvae was performed at 2 DAA and insect damage to bolls was performed at the time of harvest
Terminal control refers to crop response to the top-most vertical bud and shoots growth. Percent terminal control estimates the proportion of these upper-most growth structures desiccated per 100 cotton plants. Fifty cotton plants in two representative locations within a treatment plot were chosen to determine percent control. Each terminal of the 50 plants in the 2 locations was evaluated, and the total number desiccated per 100 plants was recorded as percent terminal control.
The results, shown as the mean of the indicated number of replications, were compared with results observed in the same trials with an untreated control.

As to `CCOC(=O)C(Cl)Cc1cc(-n2nc(C)n(C(F)F)c2=O)c(F)cc1Cl` (centres unmarked) [carfentrazone-ethyl, ethyl 2-chloro-3-[2-chloro-5-(4-difluoromethyl-3-methyl-5-oxo-4,5-dihydro-[1,2,4]-triazol-1-yl)-4-fluorophenyl]propionate], the “% Terminal Control” value runs as follows: (15% open boll application, 0.004 lb ai/a, 14 DAA, 9 replicates) 63%; (15% open boll application, 0.006 lb ai/a, 14 DAA, 9 replicates) 74%; (15% open boll application, 0.008 lb ai/a, 14 DAA, 9 replicates) 79%; (15% open boll application, 0.01 lb ai/a, 14 DAA, 9 replicates) 82%; (20% open boll application, 0.002 lb ai/a, 7 DAA, 2 replicates) 50%; (20% open boll application, 0.002 lb ai/a, 14 DAA, 2 replicates) 49%. Further, the “% Terminal Control” value (20% open boll application, 0.004 lb ai/a, 7 DAA, 2 replicates) is listed as 67%; the “% Terminal Control” value (20% open boll application, 0.004 lb ai/a, 14 DAA, 2 replicates) is 64%; the “% Terminal Control” value (20% open boll application, 0.006 lb ai/a, 7 DAA, 2 replicates) was found to be 66%; the “% Terminal Control” value (20% open boll application, 0.006 lb ai/a, 14 DAA, 2 replicates) stood at 64%; the “% Terminal Control” value (20% open boll application, 0.008 lb ai/a, 7 DAA, 2 replicates) amounted to 60%; the “% Terminal Control” value (20% open boll application, 0.008 lb ai/a, 14 DAA, 2 replicates) was found to be 63%. The “% Terminal Control” value worked out at 27% (first open boll application, 0.002 lb ai/a, 7 DAA, 3 replicates); 44% (first open boll application, 0.002 lb ai/a, 14 DAA, 3 replicates); 46% (first open boll application, 0.004 lb ai/a, 7 DAA, 3 replicates); 58% (first open boll application, 0.004 lb ai/a, 14 DAA, 3 replicates); 47% (first open boll application, 0.006 lb ai/a, 7 DAA, 3 replicates); 59% (first open boll application, 0.006 lb ai/a, 14 DAA, 3 replicates). Also, the “% Terminal Control” value runs as follows: (first open boll application, 0.008 lb ai/a, 7 DAA, 3 replicates) 50%; (first open boll application, 0.008 lb ai/a, 14 DAA, 3 replicates) 58%.
